Read-outs that look alike come from different tables or passages of the source.
Key:
Assay type in all cases: in vivo
[1] = test system: Frankliniella occidentalis; assay: Pesticidal activity against Frankliniella occidentalis, spray method; details: read-out: mortality rate against Frankliniella occidentalis
Source text: A water-soaked filter paper (9.0 cm in diameter) was placed in an insect breeding dish (Lab Guide®) with a diameter of 9.0 cm and a height of 4.0 cm, and then parafilm (width 4.0 cm×height 4.0 cm) was placed thereon. Before treating with a pesticide composition, 10 adult Frankliniella occidentalis were inoculated per petri dish using a No. 4 brush. In this case, Frankliniella occidentalis adults used were those purchased from the Bio Utilization Institute (Andong, Korea). Then, each of the pesticide compositions prepared in Examples (a diluted solution in which each of the compounds of Synthesis Examples (concentration: 100 ppm) was diluted; the solvent=distilled water+acetone 50,000 mg/L+Triton X-100 100 mg/L) was loaded into a 100 mL small sprayer, and sprayed 10-12 times at a distance of 30 cm and a height of 50 cm, and one cotyledons of soybean, which is a host plant, were added one at a time. Then, the Frankliniella occidentalis adults were stored under the conditions of 16 hours of light and 8 hours of darkness, 25±1° C., and relative humidity of 50-60%, and the number of live Frankliniella occidentalis adults was counted 48 hours after the inoculation. Thereafter, the larvae mortality rate was calculated in the same manner as in Test Example 1 above.

Spodoptera litura = assay: Pesticidal activity against Spodoptera litura, leaf-dipping method; details: read-out: mortality rate against Spodoptera litura
Protocol: Cabbage (Daiya) leaves were cut into pieces with a diameter of 5.8 cm, dipped in each of the pesticide compositions prepared in Examples (a 5% acetone solution in which each of the compounds of Synthesis Examples (concentration: 100 ppm) was diluted) for 30 seconds, and sufficiently shade-dried. Then, the shade-dried cabbage leaves were placed in a petri dish (8.8 cm in diameter) covered with a filter paper and repeatedly inoculated 3 times with the second instar larvae of Spodoptera litura, 10 larvae per inoculation. In this case, Spodoptera litura larvae used were those which were purchased from the Bio Utilization Institute (Andong, Korea). Then, the Spodoptera litura larvae were stored under the conditions of 16 hours of light and 8 hours of dark, 25±1° C., and relative humidity of 50-60%, and the number of live Spodoptera litura larvae was counted 48 hours after the inoculation. Thereafter, the larvae mortality rate was calculated in the same manner as in Test Example 1 above.

Plutella xylostella = assay: Pesticidal activity against Plutella xylostella, leaf-dipping method; details: read-out: larvae mortality rate against Plutella xylostella
Protocol: Cabbage (Daiya) leaves were cut into pieces with a diameter of 5.8 cm, dipped in each of the pesticide compositions prepared in Examples (a 5% acetone solution in which each of the compounds of Synthesis Examples (concentration: 100 ppm) was diluted) for 30 seconds, and sufficiently shade-dried. Then, the shade-dried cabbage leaves were placed in a petri dish (8.8 cm in diameter) covered with a filter paper and repeatedly inoculated 3 times with third instar larvae of Plutella xylostella, 10 larvae per inoculation. In particular, Plutella xylostella larvae used were those which were collected in a place near Gyeongju (Korea) in 2000 and bred in a breeding room for multiple generations. Then, the Plutella xylostella larvae were stored under the conditions of 16 hours of light and 8 hours of dark, 25±1° C., and relative humidity of 50-60%, and the number of live Plutella xylostella larvae was counted 48 hours after the inoculation. Thereafter, the larvae mortality rate was calculated by correcting the density after treatment based on the density before treatment, as shown in Equation 1 and Equation 2 below, and converting the same into the corrected mortality rate for untreated (Reference: A method of computing the effectiveness of an insecticide. J. Econ. Entomol. 18:265˜267. Abbott, 1925).

Measured: mortality at 100 ppm

Cc1cc(C2=NOC(c3cccc(C#N)c3)(C(F)(F)F)C2)ccc1C(=O)NC(=O)C1CC1 (stereo not drawn) [Synthesis Example 4]
≥ 80%: [1]; 100 ppm, spray, adults, 48 hours after inoculation | Spodoptera litura; 100 ppm, leaf-dipping, second instar larvae, 48 hours after inoculation | Plutella xylostella; 100 ppm, leaf-dipping, third instar larvae, 48 hours after inoculation

Cc1cc(C2=NOC(c3cc(C(F)(F)F)cc(C(F)(F)F)c3)(C(F)(F)F)C2)ccc1C(=O)NC(=O)C1CC1 (stereo not drawn) [Synthesis Example 5]
≥ 80%: [1]; 48 h | Spodoptera litura; 48 h | Plutella xylostella; 48 h

O=C(NC(=O)C1CC1)c1ccc(C2=NOC(c3cc(Cl)cc(C(F)(F)F)c3)(C(F)(F)F)C2)c2ccccc12 (stereo not drawn) [Synthesis Example 6]
≥ 80%: [1]; 48 h | Spodoptera litura; 48 h | Plutella xylostella; 48 h

O=C(NC(=O)C1CC1)c1ccc(C2=NOC(c3cc(Cl)cc(C(F)(F)F)c3)(C(F)(F)F)C2)cc1Br (stereo not drawn) [Synthesis Example 8]
≥ 80%: [1]; 48 h | Spodoptera litura; 48 h | Plutella xylostella; 48 h

O=C(NC(=O)C1CC1)c1ccc(C2=NOC(c3cc(Cl)cc(C(F)(F)F)c3)(C(F)(F)F)C2)cc1Cl (stereo not drawn) [Synthesis Example 9]
≥ 80%: [1]; 48 h | Spodoptera litura; 48 h | Plutella xylostella; 48 h

O=C(NC(=O)C1CC1)c1ccc(C2=NOC(c3cc(Cl)cc(C(F)(F)F)c3)(C(F)(F)F)C2)cn1 (stereo not drawn) [Synthesis Example 10]
≥ 80%: [1]; 48 h | Spodoptera litura; 48 h | Plutella xylostella; 48 h

Cc1cc(C2=NOC(c3cc(Cl)cc(C(F)(F)F)c3)(C(F)(F)F)C2)ccc1C(=O)N(C)C(=O)C1CC1 (stereo not drawn) [Synthesis Example 11]
≥ 80%: [1]; 48 h | Spodoptera litura; 48 h | Plutella xylostella; 48 h

CN(C(=O)c1ccc(C2=NOC(c3cc(Cl)cc(C(F)(F)F)c3)(C(F)(F)F)C2)c2ccccc12)C(=O)C1CC1 (stereo not drawn) [Synthesis Example 12]
≥ 80%: [1]; 48 h | Spodoptera litura; 48 h | Plutella xylostella; 48 h

Cc1cc(C2=NOC(c3cc(Cl)cc(Cl)c3)(C(F)(F)F)C2)ccc1C(=O)N(C)C(=O)C1CC1 (stereo not drawn) [Synthesis Example 13]
≥ 80%: [1]; 48 h | Spodoptera litura; 48 h | Plutella xylostella; 48 h

CN(C(=O)c1ccc(C2=NOC(c3cc(Cl)cc(Cl)c3)(C(F)(F)F)C2)c2ccccc12)C(=O)C1CC1 (stereo not drawn) [Synthesis Example 14]
≥ 80%: [1]; 48 h | Spodoptera litura; 48 h | Plutella xylostella; 48 h

O=C(c1ccc(C2=NOC(c3cc(Cl)cc(C(F)(F)F)c3)(C(F)(F)F)C2)c2ccccc12)N(CCF)C(=O)C1CC1 (stereo not drawn) [Synthesis Example 17]
≥ 80%: [1]; 48 h | Spodoptera litura; 48 h | Plutella xylostella; 48 h

Cc1ccc(C(=O)N(C)C(=O)c2ccc(C3=NOC(c4cc(Cl)cc(C(F)(F)F)c4)(C(F)(F)F)C3)cc2C)o1 (stereo not drawn) [Synthesis Example 18]
≥ 80%: [1]; 48 h | Spodoptera litura; 48 h | Plutella xylostella; 48 h

CCN(C(=O)c1ccc(C2=NOC(c3cc(Cl)cc(C(F)(F)F)c3)(C(F)(F)F)C2)cc1C)C(=O)C1CC1 (stereo not drawn) [Synthesis Example 19]
≥ 80%: [1]; 48 h | Spodoptera litura; 48 h | Plutella xylostella; 48 h

Cc1cc(C2=NOC(c3cc(Cl)cc(C(F)(F)F)c3)(C(F)(F)F)C2)ccc1C(=O)N(CC(F)(F)F)C(=O)C1CC1 (stereo not drawn) [Synthesis Example 20]
≥ 80%: [1]; 48 h | Spodoptera litura; 48 h | Plutella xylostella; 48 h

Cc1cc(C2=NOC(c3cc(Cl)cc(C(F)(F)F)c3)(C(F)(F)F)C2)ccc1C(=O)N(CC1CC1)C(=O)C1CC1 (stereo not drawn) [Synthesis Example 21]
≥ 80%: [1]; 48 h | Spodoptera litura; 48 h | Plutella xylostella; 48 h

Cc1cc(C2=NOC(c3cc(Cl)cc(C(F)(F)F)c3)(C(F)(F)F)C2)ccc1C(=O)N(C(=O)C1CC1)C(=O)C1CC1 (stereo not drawn) [Synthesis Example 22]
≥ 80%: [1]; 48 h | Spodoptera litura; 48 h | Plutella xylostella; 48 h

Cc1cc(C2=NOC(c3cc(Cl)cc(C(F)(F)F)c3)(C(F)(F)F)C2)ccc1C(=O)N(C(=O)C1CC1)C1CC1 (stereo not drawn) [Synthesis Example 23]
≥ 80%: [1]; 48 h | Spodoptera litura; 48 h | Plutella xylostella; 48 h

Cc1cc(C2=NOC(c3cc(Cl)cc(Cl)c3)(C(F)(F)F)C2)ccc1C(=O)NC(=O)C1(C)CC1 (stereo not drawn) [Synthesis Example 24]
≥ 80%: [1]; 48 h | Spodoptera litura; 48 h | Plutella xylostella; 48 h

Cc1cc(C2=NOC(c3cc(Cl)cc(C(F)(F)F)c3)(C(F)(F)F)C2)ccc1C(=O)NC(=O)C1(C)CC1 (stereo not drawn) [Synthesis Example 25]
≥ 80%: [1]; 48 h | Spodoptera litura; 48 h | Plutella xylostella; 48 h

Cc1cc(C2=NOC(c3cc(Cl)cc(Cl)c3)(C(F)(F)F)C2)ccc1C(=O)NC(=O)C1(C#N)CC1 (stereo not drawn) [Synthesis Example 26]
≥ 80%: [1]; 48 h | Spodoptera litura; 48 h | Plutella xylostella; 48 h

Cc1cc(C2=NOC(c3cc(Cl)cc(C(F)(F)F)c3)(C(F)(F)F)C2)ccc1C(=O)NC(=O)C1(C#N)CC1 (stereo not drawn) [Synthesis Example 27]
≥ 80%: [1]; 48 h | Spodoptera litura; 48 h | Plutella xylostella; 48 h

Cc1cc(C2=NOC(c3cc(Cl)cc(Cl)c3)(C(F)(F)F)C2)ccc1C(=O)NC(=O)C1(C(F)(F)F)CC1 (stereo not drawn) [Synthesis Example 28]
≥ 80%: [1]; 48 h | Spodoptera litura; 48 h | Plutella xylostella; 48 h

Cc1cc(C2=NOC(c3cc(Cl)cc(C(F)(F)F)c3)(C(F)(F)F)C2)ccc1C(=O)NC(=O)C1(C(F)(F)F)CC1 (stereo not drawn) [Synthesis Example 29]
≥ 80%: [1]; 48 h | Spodoptera litura; 48 h | Plutella xylostella; 48 h

Cc1cc(C2=NOC(c3cc(Cl)cc(Cl)c3)(C(F)(F)F)C2)ccc1C(=O)NC(=O)C1(C)CC1(F)F (stereo not drawn) [Synthesis Example 30]
≥ 80%: [1]; 48 h | Spodoptera litura; 48 h | Plutella xylostella; 48 h

Cc1cc(C2=NOC(c3cc(Cl)cc(C(F)(F)F)c3)(C(F)(F)F)C2)ccc1C(=O)NC(=O)C1(C)CC1(F)F (stereo not drawn) [Synthesis Example 31]
≥ 80%: [1]; 48 h | Spodoptera litura; 48 h | Plutella xylostella; 48 h

Cc1cc(C2=NOC(c3cc(Cl)cc(Cl)c3)(C(F)(F)F)C2)ccc1C(=O)NC(=O)C1CCC1 (stereo not drawn) [Synthesis Example 32]
≥ 80%: [1]; 48 h | Spodoptera litura; 48 h | Plutella xylostella; 48 h

Cc1cc(C2=NOC(c3cc(Cl)cc(C(F)(F)F)c3)(C(F)(F)F)C2)ccc1C(=O)NC(=O)C1CCC1 (stereo not drawn) [Synthesis Example 33]
≥ 80%: [1]; 48 h | Spodoptera litura; 48 h | Plutella xylostella; 48 h

Cc1cc(C2=NOC(c3cc(Cl)cc(Cl)c3)(C(F)(F)F)C2)ccc1C(=O)NC(=O)c1ccccc1 (stereo not drawn) [Synthesis Example 37]
≥ 80%: [1]; 48 h | Spodoptera litura; 48 h | Plutella xylostella; 48 h

Cc1cc(C2=NOC(c3cc(Cl)cc(Cl)c3)(C(F)(F)F)C2)ccc1C(=O)NC(=O)C1CCCCC1 (stereo not drawn) [Synthesis Example 39]
≥ 80%: [1]; 48 h | Spodoptera litura; 48 h | Plutella xylostella; 48 h

Cc1cc(C2=NOC(c3cc(Cl)cc(C(F)(F)F)c3)(C(F)(F)F)C2)ccc1C(=O)NC(=O)C1CCCCC1 (stereo not drawn) [Synthesis Example 40]
≥ 80%: [1]; 48 h | Spodoptera litura; 48 h | Plutella xylostella; 48 h

Cc1cc(C2=NOC(c3cc(Cl)cc(Cl)c3)(C(F)(F)F)C2)ccc1C(=O)NC(=O)c1cn(C)nc1C(F)F (stereo not drawn) [Synthesis Example 45]
≥ 80%: [1]; 48 h | Spodoptera litura; 48 h | Plutella xylostella; 48 h

Cn1cc(C(=O)NC(=O)c2ccc(C3=NOC(c4cc(Cl)cc(Cl)c4)(C(F)(F)F)C3)c3ccccc23)c(C(F)F)n1 (stereo not drawn) [Synthesis Example 46]
≥ 80%: [1]; 48 h | Spodoptera litura; 48 h | Plutella xylostella; 48 h
